Common to all, as to assay type: organism-based, Ehrlich
Set-up in all cases: route oral

For data set [1], the system named is Mus musculus. Kind of data set: Toxicity in Swiss albino mouse bearing mouse EAC cells assessed as hemoglobin level at 50 to 250 mg/kg/day, po after 14 days postimplantation. The conditions noted are these: in vivo, 336 h.
The test system of data set [2] is Mus musculus. Kind of data set: Toxicity in Swiss albino mouse bearing mouse EAC cells assessed as increase in body weight at 50 to 250 mg/kg/day, po. Conditions: in vivo.
Data set [3] concerns Mus musculus. As to the kind of experiment: Toxicity in Swiss albino mouse bearing mouse EAC cells assessed as mean survival time at 50 to 250 mg/kg/day, po. The conditions noted are these: in vivo.
Data set [4] concerns Mus musculus. Kind of data set: Toxicity in Swiss albino mouse bearing mouse EAC cells assessed as hematocrit level at 50 to 250 mg/kg/day, po after 14 days postimplantation. The conditions noted are these: in vivo, 336 h.
Data set [5] concerns Mus musculus. Kind of data set: Toxicity in Swiss albino mouse bearing mouse EAC cells assessed as WBC count at 50 to 250 mg/kg/day, po after 14 days postimplantation. The conditions noted are these: in vivo, 336 h.

The structures appear in SMILES notation.

In the case of `Nc1nn2c(c1/N=N/c1ccc(/N=N/c3ccccc3)cc1)NC(=O)CC2`, the Activity is 10.9 g/dL in data set [1], “Toxic” in data set [2], 43% in data set [4] and 12.8 in data set [5]. Further, in data set [3], the MST is 17.1 days.

On to `Nc1n[nH]c(/N=N/c2c(O)ccc3ccccc23)c1/N=N/c1ccc(/N=N/c2ccccc2)cc1`, for which the Activity in data set [1] was 10.5 g/dL; in data set [2], “Toxic”; in data set [4] it was 43.7%; in data set [5] it was 11.5. Also, in data set [3], the MST stood at 17.8 days.

In the case of `O=c1[nH]cc(F)c(=O)[nH]1` [FLUOROURACIL], the Activity is 10 g/dL in data set [1], “Toxic” in data set [2], 42.3% in data set [4] and 13.8 in data set [5]. Also, the MST in data set [3] stood at 16.7 days.

The values above are taken from ChEMBL document CHEMBL1155253, “Synthesis, antitumor evaluation, molecular modeling and quantitative structure-activity relationship (QSAR) of some novel arylazopyrazolodiazine and triazine analogs” (Bioorg Med Chem, 2009).
